Laboratory results from patent publication US6374907B1, “Hydrofluoroether as a heat-transfer fluid” (3M Innovative Properties Company, priority 1999, dated 2002).

Legend:
Format in all cases: physicochemical
[1] = Physical properties of the fluids (boiling point, gel temperature, pour point); details: for boiling point: ambient / atmospheric pressure
From the text: The pumping power calculation was made for various fluorinated fluids and is presented in TABLE 5, along with various physical properties of the fluids.

[2] = Liquid density, Anton-Parr densitometer
Protocol: The liquid density of n-C3F7CF(OC2H5)CF(CF3)2 was measured from 10° C. to 90° C. using an Anton-Parr Model DMA58 densitometer with a DMA602 external cell. Densities below this temperature were obtained by linear extrapolation of the available data.

[3] = Specific heat by differential scanning calorimetry (ASTM E 1269-90)
Protocol: The specific heat of n-C3F7CF(OC2H5)CF(CF3)2 was measured by differential scanning calorimetry according to ASTME 1269-90 over a temperature range of −50° C. to 50° C.

[4] = Distillation curve, head temperature vs. percent boiled; details: until over 95% of the fluid had boiled over
Protocol: H-GALDEN™ ZT-130 fluid (199 grams) was distilled from a 250 mL boiling flask using a 12 inch (30 cm) downward slanting shell-in-tube condenser into another 250 mL receiver flask. The weight of the fluid captured by the receiver was continuously monitored using an Ohaus Model TP4000D digital balance (available from Ohaus Corp., Florham Park, N.J.). The head temperature of the distillation apparatus was monitored using a type-J thermocouple. Both weight and temperature measurements were recorded using a LABVIEW SCXI automated data acquisition system (available from National Instruments Corp., Austin, Tex.) at regular intervals during the course of the distillation, which took 20.9 minutes.
The same experiment was repeated except that 211.9 g of n-C3F7CF(OC2H5)CF(CF3)2 was used in place of the H-GALDEN™ ZT-130 fluid and the distillation took place over an 11.5 minute time interval.
Thus, better temperature and viscosity control is possible when the n-C3F7CF(OC2H5)CF(CF3)2 is employed as a wide temperature range heat-transfer fluid.

[5] = Freezing or pour point measurement; details: 1 ml sample cooled with liquid nitrogen; for pour point: transparent glassy solid
Protocol: Freezing or pour points were measured for 3 related hydrofluoroether samples:
The freeze and or pour points were measured by cooling a 1 ml sample contained in a double walled glass tube. The outer tube was sealed at both ends and had side ports for the addition of nitrogen gas. The inner tube was sealed at one end. The annular space between the tubes was purged with dry nitrogen and sealed. The sample was introduced into the inner tube and sealed with a septum. The temperature of the sample contained in the inner tube was monitored with an Omega Model DP-41 (available from Omega Engineering, Inc., Stamford, Conn.) resistance thermal device inserted into the fluid. The apparatus was lowered into the dewar flask of liquid nitrogen.
If the material froze to a white solid, a freezing point is reported. If instead the material became a transparent glassy solid, a pour point is reported.
The resistance thermal device was not calibrated at temperatures less than −100° C.

[6] = Kinematic viscosity, Cannon-Fenske viscometer
Protocol: The kinematic viscosity of n-C3F7CF(OC2H5)CF(CF3)2 was measured using a Cannon-Fenske viscometer over the temperature range −80° C. to 23° C. Data were regressed using methods outlined in ASTM Standard D 341-77.

[7] = Thermal conductivity, transient hot-wire cell (ASTM D 2717-86); details: value used in place of n-C3F7CF(OC2H5)CF(CF3)2
Protocol: The thermal conductivity of n-C3F7CF(OC2H5)CF(CF3)2 was not measured. Instead, experimentally-determined values for the hydrofluoroether C4F9OC2H5 were used. These values were determined using a transient, hot-wire thermal conductivity cell over the temperature range of −50° C. to +50° C., according to ASTM D 2717-86. A platinum wire was used in the measurements. […] The thermal conductivity at 25° C. was 0.066 W/m° C.

CCOC(F)(C(F)(F)C(F)(F)C(F)(F)F)C(F)(C(F)(F)F)C(F)(F)F (stereo not drawn) [n-C3F7CF(OC2H5)CF(CF3)2, 3-ethoxy-perfluoro(2-methylhexane)]
Gel temp [1]: −100 °C | Initial Boiling point [1]: 128 °C | boiling point [1]: 128 °C | Liquid Density at 25° C. [2]: 1614 kg/m^3 | Specific Heat at 25° C. [3]: 1128 J/kg° C. | change of boiling point during distillation [4]: remained unchanged | pour point [5]: less than −100 °C | Kinematic Viscosity at 25° C. [6]: 0.77 centistokes

C4F9OC2H5
thermal conductivity at 25° C. [7]: 0.066 W/m° C.

CCOC(F)(C(F)(F)C(F)(F)F)C(F)(C(F)(F)F)C(F)(F)F (stereo not drawn) [n-C2F5CF(OC2H5)CF(CF3)2]
freeze point ([5]; froze to a white solid): −70 °C

CCOC(F)(C(F)(F)C(F)(F)C(F)(F)C(F)(F)F)C(F)(C(F)(F)F)C(F)(F)F (stereo not drawn) [n-C4F9CF(OC2H5)CF(CF3)2]
pour point [5]: −83 °C

FC(F)(F)C(F)(F)C(F)(F)N(C(F)(F)C(F)(F)C(F)(F)F)C(F)(F)C(F)(F)C(F)(F)F [FC-3283, perfluoro(tripropylamine)]
Gel temp [1]: −50 °C | Initial Boiling point [1]: 130 °C | pour point [1]: −50 °C | boiling point [1]: about 130 °C
